This is an account of results in patent publication US9789101B2, “Methods and compositions for treating microbial infection using pyrroloquinone” (HELPERBY THERAPEUTICS LIMITED, priority 2010, dated 2017).

As a reminder, the MIC is the lowest concentration that inhibits growth of the organism.

Where a name gives a salt, the structure may show the parent alone.

This test has as its system log phase Staphylococcus aureus. The test is described as follows: Chequerboard analysis of HT00800059 with HT230 or HT281 against log phase Staphylococcus aureus. Type of test: cell-based, Staphylococcus aureus (Oxford). Here is the method:
Staphylococcus aureus (Oxford); Gram positive; Reference strain.
Log phase growth of methicilin sensitive Staphylococcus aureus (MSSA) was carried out as follows: • Bacteria were grown in 10 ml of nutrient broth (No. 2, (Oxoid)) overnight at 37° C. with continuous shaking at 120 rpm. The overnight cultures were diluted 1000× with iso-sensitest broth. The cultures were incubated at 37° C. with shaking for 1-2 hours to reach log CFU 6. Viability of the bacteria was estimated by colony forming unit (CFU) counts. From serial 10-fold dilutions of the experimental cultures, 100 μl samples were added to triplicate plates of nutrient agar plates (Oxoid) or blood agar plates (Oxoid). CFUs were counted after incubation of the plates at 37° C. for 24 hours.
Bacterial cultures: 10 μl of overnight cultures was added to 10 ml of fresh iso-sensitest broth to make the inoculation to 10^6 CFU/ml. 290 μl of the cell suspension was added to each well of the 96 well plate, which was incubated at 37° C. for 24 hours. 300 μl of iso-sensitest broth without bacterial cells were added to wells of the plate as a no bacterial control.
MIC determination: The optical density of the bacterial cells was read at 405 nm using a plate reader (Bio TEK). The MIC concentration was determined as the lowest concentration of drug which inhibits the bacterial growth.
HT230 was dissolved in DMSO to the stock concentration of 10 mg/ml.
HT281 was dissolved in DMSO to the stock concentration of 10 mg/ml.
HT00800059 was dissolved in H2O to the stock solution 30.07 mg/ml.
HT230 or HT281 (10 mg/ml) was firstly diluted to 0.96 mg/ml, then a serial of 2 fold dilution was carried out.
This was followed by the addition of 280 μl of log phase culture at 10^6 CFU/ml to make the final concentrations of each drug as shown.
In the above table, values in bold text are for HT00800059. Values in plain text are for HT230 or HT281. The numbers shown in each well are μg/ml.
Incubation of the compounds with the bacterial suspension was carried out for 24 hours. The kill effects of the drug combination were measured by optical density reading at 405 nm with a plate reader (Bio TEK).
The fractional inhibitory concentration (FIC) index was carried out as follows: (MIC of drug A, tested in combination)/(MIC of drug A, tested alone)+(MIC of drug B, tested in combination)/(MIC of drug B, tested alone). The interaction was defined as synergistic if the FIC index was <1, additive if the FIC index was =1 and antagonistic if the FIC index was >1.

As for `CCCCOc1ccc(C(=O)CCN2CCCCC2)cc1` [HT00800059, dyclonine (1-(4-Butoxyphenyl)-3-(1-piperidinyl)-1-propanone) hydrochloride], the MIC after combination (HT230/HT00800059 chequerboard) was found to be 64 µg/mL and the MIC after combination (HT281/HT00800059 chequerboard) stood at 128 µg/mL. Moreover, the MIC before combination is, setting by setting: (HT230/HT00800059 chequerboard) 512 µg/mL; (HT281/HT00800059 chequerboard) 512 µg/mL. In addition, the MIC (Staphylococcus aureus, read-out: alone MIC) was 512 µg/mL. In addition, the “HT00800059 MIC in combination” value (with HT230 at 2 μg/ml) worked out at 64 µg/mL and the “HT00800059 MIC in combination” value (with HT281 at 4 μg/ml) is 128 µg/mL.
